Assay results reported in the NIST ThermoML archive (doi:10.1016/j.jct.2014.01.030).
Numbers after ± are expanded uncertainties.

Assay: xn = mol fraction of the nth substance listed
Conditions: 101 kPa, Liquid; for speed of sound: Sing-around technique in a fixed-path interferometer; for mass density: Vibrating tube method

Structure (SMILES): CCn1cc[n+](C)c1.COS(=O)(=O)[O-] [1-ethyl-3-methylimidazolium methylsulfate] + CCO
- speed of sound (288.15 K, x2 = 0): 1781 ± 2 m/s
- speed of sound (288.15 K, x2 = 0.0501): 1769 ± 2 m/s
- speed of sound (288.15 K, x2 = 0.1018): 1756 ± 2 m/s
- speed of sound (288.15 K, x2 = 0.1972): 1728 ± 2 m/s
- speed of sound (288.15 K, x2 = 0.3098): 1690 ± 2 m/s
- speed of sound (288.15 K, x2 = 0.3913): 1656 ± 2 m/s
- speed of sound (288.15 K, x2 = 0.503): 1600 ± 2 m/s
- speed of sound (288.15 K, x2 = 0.6129): 1532 ± 2 m/s
- speed of sound (288.15 K, x2 = 0.7031): 1467 ± 2 m/s
- speed of sound (288.15 K, x2 = 0.8087): 1376 ± 2 m/s
- speed of sound (288.15 K, x2 = 0.9011): 1286 ± 2 m/s
- speed of sound (288.15 K, x2 = 0.9482): 1238 ± 2 m/s
- mass density (288.15 K, x2 = 0): 1287.57 ± 0.47 kg/m3
- mass density (288.15 K, x2 = 0.0501): 1279.94 ± 0.44 kg/m3
- mass density (288.15 K, x2 = 0.1018): 1271.31 ± 0.4 kg/m3
- mass density (288.15 K, x2 = 0.1972): 1253.48 ± 0.34 kg/m3
- mass density (288.15 K, x2 = 0.3098): 1228.51 ± 0.28 kg/m3
- mass density (288.15 K, x2 = 0.3913): 1206.5 ± 0.24 kg/m3
- mass density (288.15 K, x2 = 0.503): 1170.26 ± 0.2 kg/m3
- mass density (288.15 K, x2 = 0.6129): 1125.74 ± 0.18 kg/m3
- mass density (288.15 K, x2 = 0.7031): 1078.87 ± 0.18 kg/m3
- mass density (288.15 K, x2 = 0.8087): 1007.23 ± 0.19 kg/m3
- mass density (288.15 K, x2 = 0.9011): 922.29 ± 0.23 kg/m3
- mass density (288.15 K, x2 = 0.9482): 867.78 ± 0.29 kg/m3
- speed of sound (298.15 K, x2 = 0): 1756 ± 2 m/s
- speed of sound (298.15 K, x2 = 0.05): 1744 ± 2 m/s
- speed of sound (298.15 K, x2 = 0.102): 1731 ± 2 m/s
- speed of sound (298.15 K, x2 = 0.197): 1704 ± 2 m/s
- speed of sound (298.15 K, x2 = 0.31): 1665 ± 2 m/s
- speed of sound (298.15 K, x2 = 0.391): 1630 ± 2 m/s
- speed of sound (298.15 K, x2 = 0.503): 1574 ± 2 m/s
- speed of sound (298.15 K, x2 = 0.613): 1506 ± 2 m/s
- speed of sound (298.15 K, x2 = 0.703): 1440 ± 2 m/s
- speed of sound (298.15 K, x2 = 0.809): 1348 ± 2 m/s
- speed of sound (298.15 K, x2 = 0.901): 1256 ± 2 m/s
- speed of sound (298.15 K, x2 = 0.948): 1206 ± 2 m/s
- mass density (298.15 K, x2 = 0): 1280.81 ± 0.47 kg/m3
- mass density (298.15 K, x2 = 0.05): 1273.01 ± 0.43 kg/m3
- mass density (298.15 K, x2 = 0.102): 1264.42 ± 0.4 kg/m3
- mass density (298.15 K, x2 = 0.197): 1246.51 ± 0.34 kg/m3
- mass density (298.15 K, x2 = 0.31): 1221.47 ± 0.27 kg/m3
- mass density (298.15 K, x2 = 0.391): 1199.39 ± 0.24 kg/m3
- mass density (298.15 K, x2 = 0.503): 1163.02 ± 0.2 kg/m3
- mass density (298.15 K, x2 = 0.613): 1118.41 ± 0.18 kg/m3
- mass density (298.15 K, x2 = 0.703): 1071.36 ± 0.18 kg/m3
- mass density (298.15 K, x2 = 0.809): 999.5 ± 0.19 kg/m3
- mass density (298.15 K, x2 = 0.901): 914.27 ± 0.23 kg/m3
- mass density (298.15 K, x2 = 0.948): 859.57 ± 0.29 kg/m3
- speed of sound (308.15 K, x2 = 0): 1732 ± 2 m/s
- speed of sound (308.15 K, x2 = 0.05): 1720 ± 2 m/s
- speed of sound (308.15 K, x2 = 0.102): 1707 ± 2 m/s
- speed of sound (308.15 K, x2 = 0.197): 1679 ± 2 m/s
- speed of sound (308.15 K, x2 = 0.31): 1640 ± 2 m/s
- speed of sound (308.15 K, x2 = 0.391): 1605 ± 2 m/s
- speed of sound (308.15 K, x2 = 0.503): 1549 ± 2 m/s
- speed of sound (308.15 K, x2 = 0.613): 1480 ± 2 m/s
- speed of sound (308.15 K, x2 = 0.703): 1413 ± 2 m/s
- speed of sound (308.15 K, x2 = 0.809): 1321 ± 2 m/s
- speed of sound (308.15 K, x2 = 0.901): 1226 ± 2 m/s
- speed of sound (308.15 K, x2 = 0.948): 1175 ± 2 m/s
- mass density (308.15 K, x2 = 0): 1273.97 ± 0.46 kg/m3
- mass density (308.15 K, x2 = 0.05): 1266.14 ± 0.43 kg/m3
- mass density (308.15 K, x2 = 0.102): 1257.55 ± 0.39 kg/m3
- mass density (308.15 K, x2 = 0.197): 1239.58 ± 0.33 kg/m3
- mass density (308.15 K, x2 = 0.31): 1214.47 ± 0.27 kg/m3
- mass density (308.15 K, x2 = 0.391): 1192.33 ± 0.24 kg/m3
- mass density (308.15 K, x2 = 0.503): 1155.75 ± 0.2 kg/m3
- mass density (308.15 K, x2 = 0.613): 1111.08 ± 0.18 kg/m3
- mass density (308.15 K, x2 = 0.703): 1063.86 ± 0.18 kg/m3
- mass density (308.15 K, x2 = 0.809): 991.73 ± 0.2 kg/m3
- mass density (308.15 K, x2 = 0.901): 906.19 ± 0.23 kg/m3
- mass density (308.15 K, x2 = 0.948): 851.28 ± 0.29 kg/m3
